Data published in patent EP3478687B1 (Daewoong Pharmaceutical Co., Ltd., priority 2016, dated 2018).
pIC50: −log10 of the molar value.

Tests used:
[1] = molecular target: T1, Recombinant purified human JAK3 (Homo sapiens, UniProt P52333); assay: JAK3 kinase inhibitory activity, ADP-Glo kinase assay (Promega V9441); assay type: biochemical; details: ATP 5 uM, 4 ng JAK3 per reaction, 1 hour 30 °C, chemiluminescence
T1 construct: purchased Promega V9441
T1 sequence (P52333 1-1124): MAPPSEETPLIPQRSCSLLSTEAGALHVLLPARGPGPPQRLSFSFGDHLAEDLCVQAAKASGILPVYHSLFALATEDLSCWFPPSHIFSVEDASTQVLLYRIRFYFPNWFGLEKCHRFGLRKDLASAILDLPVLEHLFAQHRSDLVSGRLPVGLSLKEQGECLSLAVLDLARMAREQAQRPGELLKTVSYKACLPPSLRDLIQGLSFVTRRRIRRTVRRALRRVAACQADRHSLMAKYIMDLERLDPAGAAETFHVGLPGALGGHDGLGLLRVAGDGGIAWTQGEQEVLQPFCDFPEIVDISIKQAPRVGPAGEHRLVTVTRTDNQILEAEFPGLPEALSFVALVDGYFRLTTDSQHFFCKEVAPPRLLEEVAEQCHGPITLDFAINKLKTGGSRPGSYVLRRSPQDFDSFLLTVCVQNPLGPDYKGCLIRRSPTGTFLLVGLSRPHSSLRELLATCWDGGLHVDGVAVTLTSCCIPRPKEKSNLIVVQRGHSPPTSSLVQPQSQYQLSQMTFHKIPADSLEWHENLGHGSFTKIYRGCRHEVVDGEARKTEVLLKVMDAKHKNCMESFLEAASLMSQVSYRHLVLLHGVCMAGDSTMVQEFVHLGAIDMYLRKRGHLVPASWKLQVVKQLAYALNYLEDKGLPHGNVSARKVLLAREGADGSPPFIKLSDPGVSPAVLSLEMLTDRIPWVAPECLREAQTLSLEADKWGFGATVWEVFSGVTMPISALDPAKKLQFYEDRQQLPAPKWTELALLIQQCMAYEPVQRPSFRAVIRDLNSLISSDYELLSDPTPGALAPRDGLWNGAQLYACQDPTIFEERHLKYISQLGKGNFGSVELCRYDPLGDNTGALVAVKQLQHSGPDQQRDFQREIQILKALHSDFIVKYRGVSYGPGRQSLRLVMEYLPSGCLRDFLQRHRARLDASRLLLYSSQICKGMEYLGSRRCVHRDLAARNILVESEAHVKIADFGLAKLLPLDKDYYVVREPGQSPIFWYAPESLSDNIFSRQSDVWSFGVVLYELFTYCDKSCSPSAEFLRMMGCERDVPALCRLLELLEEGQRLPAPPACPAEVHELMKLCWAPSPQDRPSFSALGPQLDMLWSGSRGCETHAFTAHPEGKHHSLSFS
Method in brief: (§1)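 Recombinant human kinases in Tris pH 7.5 buffer with MgCl2, BSA and DTT (MnCl2 added for BTK), 4 ng JAK3 or 8 ng BTK per reaction. Poly(Glu4,Tyr1) 0.2 µg/µL with 5 µM (JAK3) or 10 µM (BTK) ATP, 1% DMSO, 1 h at 30 °C. ADP-Glo luminescence used to derive IC50.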

[2] = molecular target: T2, Recombinant purified human BTK (Homo sapiens, UniProt Q06187); assay: BTK kinase inhibitory activity, ADP-Glo kinase assay (Promega V9071); assay type: biochemical; details: ATP 10 uM, 8 ng BTK per reaction, 1 hour 30 °C, chemiluminescence
T2 construct: purchased Promega V9071
Method in brief: as §1

T2 sequence (Q06187 whole entry): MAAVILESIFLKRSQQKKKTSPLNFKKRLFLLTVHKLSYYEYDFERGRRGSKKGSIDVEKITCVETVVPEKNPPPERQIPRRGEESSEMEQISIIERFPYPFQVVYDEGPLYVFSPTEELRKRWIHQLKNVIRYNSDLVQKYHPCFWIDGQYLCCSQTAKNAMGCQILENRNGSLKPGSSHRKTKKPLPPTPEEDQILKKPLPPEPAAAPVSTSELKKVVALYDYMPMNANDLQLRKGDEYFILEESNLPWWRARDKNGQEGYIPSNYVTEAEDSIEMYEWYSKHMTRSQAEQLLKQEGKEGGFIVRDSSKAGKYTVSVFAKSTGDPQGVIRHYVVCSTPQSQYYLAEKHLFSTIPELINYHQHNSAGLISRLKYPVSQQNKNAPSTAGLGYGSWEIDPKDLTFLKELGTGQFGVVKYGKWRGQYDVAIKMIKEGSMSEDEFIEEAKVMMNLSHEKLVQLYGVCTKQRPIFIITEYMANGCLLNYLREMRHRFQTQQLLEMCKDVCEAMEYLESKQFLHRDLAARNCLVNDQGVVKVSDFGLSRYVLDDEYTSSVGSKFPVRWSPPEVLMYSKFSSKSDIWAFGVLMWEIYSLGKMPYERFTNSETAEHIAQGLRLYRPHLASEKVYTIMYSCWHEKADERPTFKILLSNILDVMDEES

Row | SMILES | pIC50 [1] | pIC50 [2]
1 | C=CC(=O)N1CCC[C@@H](Nc2nc(Nc3cnn(C4CC4)c3)nc3[nH]nc(SC)c23)C1 [Example 129] | 7.37 | 8.64
2 | C=CC(=O)N1CCC[C@@H](N(C)c2nc(Nc3cnn(CC)c3)nc3[nH]nc(SC)c23)C1 [Example 131, (R)-1-(3-((6-((1-ethyl-1H-pyrazol-4-yl)amino)-3-(methylthio)-1H-pyrazolo [3,4-d]pyrimidin-4-yl)(methyl)amino)piperidin-1-yl)prop-2-en-1-one] | 7.61 | 8.80
3 | C=CC(=O)N1CC[C@@H](C)[C@@H](Nc2nc(Nc3cnn(CC)c3)nc3[nH]nc(SC)c23)C1 [Example 132, 1-((3R,4R)-3-((6-((1-ethyl-1H-pyrazol-4-yl)amino)-3-(methylthio)-1H-pyrazolo[3,4-d]pyrimidin-4-yl)amino)-4-methylpiperidin-1-yl)prop-2-en-1-one] | 7.59 | 8.68
4 | C=CC(=O)N1CC[C@@H](C)[C@@H](Nc2nc(Nc3cnn(CC(F)F)c3)nc3[nH]nc(SC)c23)C1 [Example 133, 1-((3R,4R)-3-((6-((1-(2,2-difluoroethyl)-1H-pyrazol-4-yl)amino)-3-(methylthio)-1H-pyrazolo [3,4-d]pyrimidin-4-yl)amino)-4-methylpiperidin-1-yl)prop-2-en-1-one] | 7.80 | 8.80
5 | C=CC(=O)N1CC[C@@H](C)[C@@H](Nc2nc(Nc3cnn(CC#N)c3)nc3[nH]nc(SC)c23)C1 [Example 134, 2-(4-((4-(((3R,4R)-1-acryloyl-4-methylpiperidin-3-yl)amino)-3-(methylthio)-1H-pyrazolo[3,4-d]pyrimidin-6-yl)amino)-1H-pyrazol-1-yl)acetonitrile] | 7.75 | 8.74
6 | C=CC(=O)N1CC[C@@H](C)[C@@H](Nc2nc(Nc3cnn(C4CC4)c3)nc3[nH]nc(SC)c23)C1 [Example 135, 1-((3R,4R)-3-((6-((1-cyclopropyl-1H-pyrazol-4-yl)amino)-3-(methylthio)-1H-pyrazolo[3,4-d]pyrimidin-4-yl)amino)-4-methylpiperidin-1-yl)prop-2-en-1-one] | 7.37 | 8.64
7 | C=CC(=O)N1CCC[C@@H](Nc2nc(Nc3cc(C)ns3)nc3[nH]cc(Cl)c23)C1 [Example 136, (R)-1-(3-((5-chloro-2-((3-methylisothiazol-5-yl)amino)-7H-pyrrolo[2,3-d]pyrimidin-4-yl)amino)piperidin-1-yl)prop-2-en-1-one] | 10.00 | 8.96
8 | C=CC(=O)N1CCC[C@@H](Nc2nc(Nc3cccnc3)nc3[nH]cc(Cl)c23)C1 [Example 137, (R)-1-(3-((5-chloro-2-(pyridin-3-ylamino)-7H-pyrrolo[2,3-d]pyrimidin-4-yl)amino)piperidin-1-yl)prop-2-en-1-one] | 8.59 | 7.71
9 | CCn1cc(Nc2nc(N[C@H]3CN(C(=O)CC#N)CC[C@H]3F)c3c(Cl)n[nH]c3n2)cn1 [Example 138] | < 7.10 | 7.03
10 | N#CCC(=O)N1CCC[C@@H](Nc2nc(Nc3cnn(C4CC4)c3)nc3[nH]nc(Cl)c23)C1 [Example 139, (R)-3-(3-((3-chloro-6-((1-cyclopropyl-1H-pyrazol-4-yl)amino)-1H-pyrazolo[3,4-d]pyrimidin-4-yl)amino)piperidin-1-yl)-3-oxopropanenitrile] | < 7.10 | 6.85
11 | C/C=C/C(=O)N1CCC[C@@H](Nc2nc(Nc3ccc(N4CCN(C)CC4)cc3)nc3[nH]cc(Cl)c23)C1 [Example 140, (R,E)-1-(3-((5-chloro-2-((4-(4-methylpiperazin-1-yl)phenyl)amino)-7H-pyrrolo [2,3-d]pyrimidin-4-yl)amino)piperidin-1-yl)but-2-en-1-one] | < 7.10 | 6.01
12 | CN1CCN(c2ccc(Nc3nc(N[C@@H]4CCCN(C(=O)C#CC5CC5)C4)c4c(Cl)c[nH]c4n3)cc2)CC1 [Example 141, (R)-1-(3-((5-chloro-2-((4-(4-methylpiperazin-1-yl)phenyl)amino)-7H-pyrrolo [2,3-d]pyrimidin-4-yl)amino)piperidin-1-yl)-3-cyclopropylprop-2-yn-1-one] | 7.41 | 6.51
13 | CCC#CC(=O)N1CCC[C@@H](Nc2nc(Nc3ccc(N4CCN(C)CC4)cc3)nc3[nH]cc(Cl)c23)C1 [Example 142, (R)-1-(3-((5-chloro-2-((4-(4-methylpiperazin-1-yl)phenyl)amino)-7H-pyrrolo[2,3-d]pyrimidin-4-yl)amino)piperidin-1-yl)pent-2-yn-1-one] | 7.65 | 6.68
14 | C=CC(=O)N1CCC[C@@H](Nc2nc(Nc3cnn(CC(F)(F)F)c3)nc3[nH]ncc23)C1 [Example 144, (R)-1-(3-((6-((1-(2,2,2-trifluoroethyl)-1H-pyrazol-4-yl)amino)-1H-pyrazolo[3,4-d]pyrimidin-4-yl)amino)piperidin-1-yl)prop-2-en-1-one] | 8.85 | 8.82
15 | C=CC(=O)N1CCC[C@@H](Nc2nc(Nc3cnn(CCN(CC)CC)c3)nc3[nH]ncc23)C1 [Example 145, (R)-1-(3-((6-((1-(2-(diethylamino)ethyl)-1H-pyrazol-4-yl)amino)-1H-pyrazolo[3,4-d]pyrimidin-4-yl)amino)piperidin-1-yl)prop-2-en-1-one] | 8.77 | 8.85
16 | C=CC(=O)N1CCC[C@@H](Nc2nc(Nc3cnoc3)nc3[nH]ncc23)C1 [Example 146, (R)-1-(3-((6-(isoxazol-4-ylamino)-1H-pyrazolo[3,4-d]pyrimidin-4-yl)amino)piperidin-1-yl)prop-2-en-1-one] | 8.13 | 8.85
17 | C=CC(=O)N1CCC[C@@H](Oc2nc(Nc3cnn(CC)c3)nc3[nH]nc(Cl)c23)C1 [Example 147] | 8.85 | 8.68
18 | C=CC(=O)N1CCC[C@@H](Oc2nc(Nc3cnn(C4CC4)c3)nc3[nH]cc(C#N)c23)C1 [Example 148, (R)-4-((1-acryloylpiperidin-3-yl)oxy)-2-((1-cyclopropyl-1H-pyrazol-4-yl)amino)-7H-pyrrolo[2,3-d]pyrimidine-5-carbonitrile] | 9.52 | 8.80
19 | C=CC(=O)N1CCC[C@@H](Oc2nc(Nc3cnn(CC(F)F)c3)nc3[nH]cc(C#N)c23)C1 [Example 149, (R)-4-((1-acryloylpiperidin-3-yl)oxy)-2-((1-(2,2-difluoroethyl)-1H-pyrazol-4-yl)amino)-7H-pyrrolo[2,3-d]pyrimidine-5-carbonitrile] | 9.70 | 8.80
20 | C=CC(=O)N1CCC[C@@H](Oc2nc(Nc3cnn(CC)c3)nc3[nH]cc(C#N)c23)C1 [Example 150, (R)-4-((1-acryloylpiperidin-3-yl)oxy)-2-((1-ethyl-1H-pyrazol-4-yl)amino)-7H-pyrrolo[2,3-d]pyrimidine-5-carbonitrile] | 9.52 | 8.80
21 | C=CC(=O)N1CCC[C@@H](Oc2nc(Nc3cnn(CC)c3)nc3[nH]ccc23)C1 [Example 151, (R)-1-(3-((2-((1-ethyl-1H-pyrazol-4-yl)amino)-7H-pyrrolo[2,3-d]pyrimidin-4-yl)oay)piperidin-1-yl)prop-2-en-1-one] | 9.40 | 8.52
22 | C=CC(=O)N1CCC[C@@H](Oc2nc(Nc3ccc(N4CCOCC4)cc3)nc3[nH]ccc23)C1 [Example 152, (R)-1-(3-((2-((4-morpholinophenyl)amino)-7H-pyrrolo[2,3-d]pyrimidin-4-yl)oay)piperidin-1-yl)prop-2-en-1-one] | 8.70 | 8.35
